Legend:
[1] = molecular target: human vasopressin V1a receptor (Homo sapiens, UniProt P37288); test: Vasopressin V1a receptor binding assay; conditions: selectivity for human V1b over human V1a, quotient of binding constants
[2] = molecular target: T1, human vasopressin V1b receptor (Homo sapiens, UniProt P47901); test: biochemical; conditions: Ki(h-V1b)* [nM], CHO-K1 cell membranes, displacement of 3H-AVP
T1 sequence (P47901 1-424): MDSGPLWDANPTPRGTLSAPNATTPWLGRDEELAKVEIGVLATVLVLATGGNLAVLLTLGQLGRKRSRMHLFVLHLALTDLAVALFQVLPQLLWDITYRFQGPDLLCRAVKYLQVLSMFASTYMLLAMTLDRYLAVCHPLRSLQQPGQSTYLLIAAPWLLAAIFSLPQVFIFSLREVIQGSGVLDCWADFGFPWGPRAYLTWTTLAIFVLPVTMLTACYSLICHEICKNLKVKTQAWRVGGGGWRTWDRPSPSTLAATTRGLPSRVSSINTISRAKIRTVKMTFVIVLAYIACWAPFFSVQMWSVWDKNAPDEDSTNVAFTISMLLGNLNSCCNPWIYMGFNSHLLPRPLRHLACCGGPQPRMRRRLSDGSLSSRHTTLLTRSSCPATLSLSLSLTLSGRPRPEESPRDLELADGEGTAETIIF

Chain of human vasopressin V1a receptor (P37288 whole entry): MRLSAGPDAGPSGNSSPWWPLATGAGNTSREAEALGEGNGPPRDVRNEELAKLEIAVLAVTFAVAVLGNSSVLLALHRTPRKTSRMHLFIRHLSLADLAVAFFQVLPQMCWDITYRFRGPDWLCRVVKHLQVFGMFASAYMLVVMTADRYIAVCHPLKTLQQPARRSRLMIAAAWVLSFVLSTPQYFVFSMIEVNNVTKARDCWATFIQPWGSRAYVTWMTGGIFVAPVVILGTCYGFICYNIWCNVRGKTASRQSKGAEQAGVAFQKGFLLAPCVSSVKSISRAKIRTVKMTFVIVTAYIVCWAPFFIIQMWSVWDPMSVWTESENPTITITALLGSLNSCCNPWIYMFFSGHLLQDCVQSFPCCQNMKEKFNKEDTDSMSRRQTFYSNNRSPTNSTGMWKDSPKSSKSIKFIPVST

Compound | Ki(h-V1a)/Ki(h-V1b) [1] | Ki [2]
CCOc1ncccc1[C@]1(NC(=O)N2CC3(CN(CCN4CCOCC4)C3)C2)C(=O)N(S(=O)(=O)c2ccc(OC)cc2F)c2ccc(C#N)cc21.O=C(O)C(F)(F)F [Example 6, N-[(3S)-5-Cyano-3-(2-ethoxy-3-pyridyl)-1-(2-fluoro-4-methoxy-phenyl)sulfonyl-2-oxo-indolin-3-yl]-2-(2-morpholinoethyl)-2,6-diazaspiro[3.3]heptane-6-carboxamide; 2,2,2-trifluoroacetic acid] | ++ (25-75) | 1 to 10 nM
CCOc1ncccc1[C@]1(NC(=O)N2CC3(CN(CCN4CCOCC4)C3)C2)C(=O)N(S(=O)(=O)c2ccc(OC)cc2OC)c2ccc(C#N)cc21 [Example 7, N-[(3S)-5-Cyano-1-(2,4-dimethoxyphenyl)sulfonyl-3-(2-ethoxy-3-pyridyl)-2-oxo-indolin-3-yl]-2-(2-morpholinoethyl)-2,6-diazaspiro[3.3]heptane-6-carboxamide] | ++ (25-75) | 1 to 10 nM
CCOc1ncccc1[C@]1(NC(=O)N2CC3(CN(CCN4CCOCC4)C3)C2)C(=O)N(S(=O)(=O)c2ccc(F)cc2)c2ccc(C#N)cc21 [Example 8, N-[(3S)-5-Cyano-3-(2-ethoxy-3-pyridyl)-1-(4-fluorophenyl)sulfonyl-2-oxo-indolin-3-yl]-2-(2-morpholinoethyl)-2,6-diazaspiro[3.3]heptane-6-carboxamide] | ++ (25-75) | 10 to 100 nM
CCOc1ncccc1[C@]1(NC(=O)N2CC3(CN(CCN(CC)CC)C3)C2)C(=O)N(S(=O)(=O)c2ccc(OC)cc2)c2ccc(C#N)cc21 [Example 9, N-[(3S)-5-Cyano-3-(2-ethoxy-3-pyridyl)-1-(4-methoxyphenyl)sulfonyl-2-oxo-indolin-3-yl]-2-(2-diethylaminoethyl)-2,6-diazaspiro[3.3]heptane-6-carboxamide] | +++ (>75) | 1 to 10 nM
CCOc1ncccc1[C@]1(NC(=O)N2CC3(CN(CCN4CCOCC4)C3)C2)C(=O)N(S(=O)(=O)c2ccc(C)cc2)c2ccc(C#N)cc21.O=C(O)C(F)(F)F [Example 10, N-[(3S)-5-Cyano-3-(2-ethoxy-3-pyridyl)-2-oxo-1-(p-tolylsulfonyl)indolin-3-yl]-2-(2-morpholinoethyl)-2,6-diazaspiro[3.3]heptane-6-carboxamide; 2,2,2-trifluoroacetic acid] | ++ (25-75) | 1 to 10 nM
CCOc1ncccc1[C@]1(NC(=O)N2CC3(CN(CCN4CCOCC4)C3)C2)C(=O)N(S(=O)(=O)c2ccccc2OC)c2ccc(C#N)cc21.O=C(O)C(F)(F)F [Example 11, N-[(3S)-5-Cyano-3-(2-ethoxy-3-pyridyl)-1-(2-methoxyphenyl)sulfonyl-2-oxo-indolin-3-yl]-2-(2-morpholinoethyl)-2,6-diazaspiro[3.3]heptane-6-carboxamide; 2,2,2-trifluoroacetic acid] | +++ (>75) | 1 to 10 nM
COc1ccc(S(=O)(=O)N2C(=O)[C@@](NC(=O)N3CC4(CN(CCN5CCOCC5)C4)C3)(c3cccnc3OC)c3cc(C#N)ccc32)cc1.O=C(O)C(F)(F)F [Example 12, N-[(3S)-5-Cyano-1-(4-methoxyphenyl)sulfonyl-3-(2-methoxy-3-pyridyl)-2-oxo-indolin-3-yl]-2-(2-morpholinoethyl)-2,6-diazaspiro[3.3]heptane-6-carboxamide; 2,2,2-trifluoroacetic acid] | + (10-<25) | 1 to 10 nM
CCOc1ncccc1[C@]1(NC(=O)N2CC3(CN(CCN4CCCCC4)C3)C2)C(=O)N(S(=O)(=O)c2ccc(OC)cc2)c2ccc(C#N)cc21 [Example 13, N-[(3S)-5-Cyano-3-(2-ethoxy-3-pyridyl)-1-(4-methoxyphenyl)sulfonyl-2-oxo-indolin-3-yl]-2-[2-(1-piperidyl)ethyl]-2,6-diazaspiro[3.3]heptane-6-carboxamide] | ++ (25-75) | < 1 nM
CCOc1ncccc1[C@]1(NC(=O)N2CC3(CN(CCN4CCOCC4)C3)C2)C(=O)N(S(=O)(=O)c2ccccc2OC)c2ccc(C#N)cc21 [Example 14, N-[(3S)-5-Cyano-3-(2-ethoxy-3-pyridyl)-1-(2-methoxyphenyl)sulfonyl-2-oxo-indolin-3-yl]-2-(2-morpholinoethyl)-2,6-diazaspiro[3.3]heptane-6-carboxamide] | +++ (>75) | 10 to 100 nM
CCOc1ncccc1[C@]1(NC(=O)N2CC3(CN(CCN4CCOCC4)C3)C2)C(=O)N(S(=O)(=O)c2ccc(OC)cc2OC)c2ccc(C#N)cc21 [Example 15, N-[(3S)-5-Cyano-1-(2,4-dimethoxyphenyl)sulfonyl-3-(2-ethoxy-3-pyridyl)-2-oxo-indolin-3-yl]-2-(2-morpholinoethyl)-2,6-diazaspiro[3.3]heptane-6-carboxamide] | +++ (>75) | < 1 nM
CCOc1ncccc1[C@]1(NC(=O)N2CC3(CN(CCN4CCOCC4)C3)C2)C(=O)N(S(=O)(=O)c2ccc(F)cc2OC)c2ccc(C#N)cc21 [Example 17, N-[(3S)-5-Cyano-3-(2-ethoxy-3-pyridyl)-1-(4-fluoro-2-methoxy-phenyl)sulfonyl-2-oxo-indolin-3-yl]-2-(2-morpholinoethyl)-2,6-diazaspiro[3.3]heptane-6-carboxamide] | ++ (25-75) | 1 to 10 nM

Next, values leading:

Ki(h-V1a)/Ki(h-V1b) [1] | Ki [2] | Compound
+++ (>75) | < 1 nM | CCOc1ncccc1[C@]1(NC(=O)N2CC3(CN(CCN4CCOCC4)C3)C2)C(=O)N(S(=O)(=O)c2ccc(OC)cc2F)c2ccc(C#N)cc21 [Example 18, N-[(3S)-5-Cyano-3-(2-ethoxy-3-pyridyl)-1-(2-fluoro-4-methoxy-phenyl)sulfonyl-2-oxo-indolin-3-yl]-2-(2-morpholinoethyl)-2,6-diazaspiro[3.3]heptane-6-carboxamide]
+++ (>75) | 1 to 10 nM | CCOc1ncccc1[C@]1(NC(=O)N2CC3(CN(CCN4CCOCC4)C3)C2)C(=O)N(S(=O)(=O)c2ccc(OC)cc2)c2cc(F)c(C#N)cc21 [Example 19, N-[(3S)-5-Cyano-3-(2-ethoxy-3-pyridyl)-6-fluoro-1-(4-methoxyphenyl)sulfonyl-2-oxo-indolin-3-yl]-2-(2-morpholinoethyl)-2,6-diazaspiro[3.3]heptane-6-carboxamide]
+++ (>75) | 10 to 100 nM | CCOc1ncccc1[C@]1(NC(=O)N2CC3(CC(OCCN4CCOCC4)C3)C2)C(=O)N(S(=O)(=O)c2ccc(OC)cc2)c2ccc(C#N)cc21 [Example 21A, N-[(3S)-5-Cyano-3-(2-ethoxy-3-pyridyl)-1-(4-methoxyphenyl)sulfonyl-2-oxo-indolin-3-yl]-2-(2-morpholinoethoxy)-6-azaspiro[3.3]heptane-6-carboxamide]
+++ (>75) | 10 to 100 nM | CCOc1ncccc1[C@]1(NC(=O)N2CC3(C2)CN(C2CCN(C(C)C)CC2)C3)C(=O)N(S(=O)(=O)c2ccc(C#N)cc2)c2ccc(C#N)cc21 [Example 24, N-[(3S)-5-cyano-1-(4-cyanophenyl)sulfonyl-3-(2-ethoxy-3-pyridyl)-2-oxo-indolin-3-yl]-2-(1-isopropyl-4-piperidyl)-2,6-diazaspiro[3.3]heptane-6-carboxamide]
++ (25-75) | 10 to 100 nM | CCOc1ncccc1[C@]1(NC(=O)N2CC3(C2)CN(C2CCN(C(C)C)CC2)C3)C(=O)N(S(=O)(=O)c2ccc(C)cc2)c2ccc(C#N)cc21 [Example 25, N-[(3S)-5-Cyano-3-(2-ethoxy-3-pyridyl)-2-oxo-1-(p-tolylsulfonyl)indolin-3-yl]-2-(1-isopropyl-4-piperidyl)-2,6-diazaspiro[3.3]heptane-6-carboxamide]
+++ (>75) | 10 to 100 nM | CCOc1ncccc1[C@]1(NC(=O)N2CC3(C2)CN(C2CCN(C(C)C)CC2)C3)C(=O)N(S(=O)(=O)c2ccc(F)cc2)c2ccc(C#N)cc21 [Example 27, N-[(3S)-5-Cyano-3-(2-ethoxy-3-pyridyl)-1-(4-fluorophenyl)sulfonyl-2-oxo-indolin-3-yl]-2-(1-isopropyl-4-piperidyl)-2,6-diazaspiro[3.3]heptane-6-carboxamide]
+++ (>75) | 1 to 10 nM | CCOc1ncccc1[C@]1(NC(=O)N2CC3(C2)CN(C2CCN(C(C)C)CC2)C3)C(=O)N(S(=O)(=O)c2ccc(OC)cc2)c2ccc(C#N)cc21 [Example 29, N-[(3S)-5-Cyano-3-(2-ethoxy-3-pyridyl)-1-(4-methoxyphenyl)sulfonyl-2-oxo-indolin-3-yl]-2-(1-isopropyl-4-piperidyl)-2,6-diazaspiro[3.3]heptane-6-carboxamide]
++ (25-75) | 10 to 100 nM | CCOc1ncccc1[C@]1(NC(=O)N2CC3(C2)CN(C2CCN(C)CC2)C3)C(=O)N(S(=O)(=O)c2ccccc2OC)c2ccc(C#N)cc21 [Example 32, N-[(3S)-5-Cyano-3-(2-ethoxy-3-pyridyl)-1-(2-methoxyphenyl)sulfonyl-2-oxo-indolin-3-yl]-2-(1-methyl-4-piperidyl)-2,6-diazaspiro[3.3]heptane-6-carboxamide]
++ (25-75) | 10 to 100 nM | CCOc1ncccc1[C@]1(NC(=O)N2CC3(C2)CN(C2CCN(C)CC2)C3)C(=O)N(S(=O)(=O)c2ccc(OC)cc2)c2ccc(C#N)cc21 [Example 33, N-[(3S)-5-Cyano-3-(2-ethoxy-3-pyridyl)-1-(4-methoxyphenyl)sulfonyl-2-oxo-indolin-3-yl]-2-(1-methyl-4-piperidyl)-2,6-diazaspiro[3.3]heptane-6-carboxamide]

Source: patent publication US9527856B2, “Oxindole compounds carrying a CO-bound spiro substituent and use thereof for treating vasopressin-related diseases” (AbbVie Deutschland GmbH & Co. KG, priority 2014, dated 2016)
